Measured values from paper PMC7914897, “Cytotoxic Potential of a-Azepano- and 3-Amino-3,4-SeCo-Triterpenoids” (International Journal of Molecular Sciences, 2021).

Key:
[1] = system: HOP-62 (NSC lung cancer); assay: NCI-60 screen (SRB, 48 h); conditions: Homo sapiens
[2] = system: NCI-H226 (NSC lung cancer); assay: NCI-60 screen (SRB, 48 h); conditions: Homo sapiens
[3] = system: MDA-MB-468 (Breast cancer); assay: cells; conditions: Homo sapiens
[4] = system: Leukemia subpanel; assay: cells; conditions: Homo sapiens
[5] = system: OVCAR-5 (Ovarian cancer); assay: NCI-60 screen (SRB, 48 h); conditions: Homo sapiens
[6] = system: SK-MEL-5 (Melanoma); assay: NCI-60 screen (SRB, 48 h); conditions: Homo sapiens
[7] = system: CCRF-CEM (Leukemia); assay: NCI-60 screen (SRB, 48 h); conditions: Homo sapiens
[8] = system: Renal Cancer subpanel; assay: NCI-60 screen, subpanel; conditions: Homo sapiens
[9] = system: RPMI-8226 (Leukemia); assay: NCI-60 screen (SRB, 48 h); conditions: Homo sapiens
[10] = system: EKVX (NSC lung cancer); assay: NCI-60 screen (SRB, 48 h); conditions: Homo sapiens
[11] = system: SNB-75 (CNS cancer); assay: NCI-60 screen (SRB, 48 h); conditions: Homo sapiens
[12] = system: OVCAR-3 (Ovarian cancer); assay: cells; conditions: Homo sapiens
[13] = system: MDA-MB-435 (Melanoma); assay: NCI-60 screen (SRB, 48 h); type: cell-based; conditions: Homo sapiens
[14] = system: COLO 205 (Colon cancer); assay: NCI-60 screen (SRB, 48 h); conditions: Homo sapiens
[15] = system: MDA-MB-31/ATCC (Breast cancer); assay: NCI-60 screen (SRB, 48 h); conditions: Homo sapiens
[16] = system: MOLT-4 (Leukemia); assay: NCI-60 screen (SRB, 48 h); conditions: Homo sapiens
[17] = system: NCI-H460 (NSC lung cancer); assay: NCI-60 screen (SRB, 48 h); conditions: Homo sapiens
[18] = system: SNB-19 (CNS cancer); assay: NCI-60 screen (SRB, 48 h); conditions: Homo sapiens
[19] = system: MCF7 (Breast cancer); assay: NCI-60 screen (SRB, 48 h); conditions: Homo sapiens
[20] = system: SK-OV-3 (Ovarian cancer); assay: NCI-60 screen (SRB, 48 h); conditions: Homo sapiens
[21] = system: SK-MEL-28 (Melanoma); assay: NCI-60 screen (SRB, 48 h); conditions: Homo sapiens
[22] = system: Prostate cancer subpanel; assay: NCI-60 screen, subpanel; conditions: Homo sapiens
[23] = system: SK-MEL-2 (Melanoma); assay: NCI-60 screen (SRB, 48 h); conditions: Homo sapiens
[24] = system: Breast cancer subpanel; assay: NCI-60 screen, subpanel; conditions: Homo sapiens
[25] = system: Melanoma subpanel; assay: NCI-60 screen, subpanel; conditions: Homo sapiens
[26] = system: 786-0 (Renal cancer); assay: NCI-60 screen (SRB, 48 h)
[27] = system: U251 (CNS cancer); assay: NCI-60 screen (SRB, 48 h)
[28] = system: HCC-2998 (Colon cancer); assay: NCI-60 screen (SRB, 48 h); conditions: Homo sapiens
[29] = system: MALME-3M (Melanoma); assay: NCI-60 screen (SRB, 48 h); conditions: Homo sapiens

## Cc1ccc(S(=O)(=O)OC[C@@]2(C)CC[C@]3(C)CC[C@]4(C)C(=C3C2)C=C[C@@H]2[C@@]3(C)CCCNC(C)(C)[C@@H]3CC[C@]24C)cc1 [Compound 16]
[1]; HOP-62
  GI50: 1.84 µM
[1]; HOP-62, 48 h, read-out: TGI
  IC (TGI): 3.59 µM
[2]; NCI-H226
  GI50: 1.66 µM
[2]; NCI-H226, 48 h, read-out: TGI
  IC (TGI): 3.47 µM
[3]; MDA-MB-468
  GI50: 1.59 µM
[3]; MDA-MB-468, 48 h, read-out: TGI
  IC (TGI): 3.22 µM
[3]; MDA-MB-468, read-out: LC50
  CC50: 6.51 µM
[4]; 48 h, read-out: TGI MG_MID
  IC (TGI): 4.72 µM
[4]; read-out: GI50 MG_MID
  GI50: 1.61 µM
[4]; read-out: LC50 MG_MID
  CC50: > 100 µM
[5]; OVCAR-5
  GI50: 1.77 µM
[5]; OVCAR-5, 48 h, read-out: TGI
  IC (TGI): 3.21 µM
[5]; OVCAR-5, read-out: LC50
  CC50: 5.81 µM
[6]; SK-MEL-5
  GI50: 1.82 µM
[6]; SK-MEL-5, 48 h, read-out: TGI
  IC (TGI): 3.39 µM
[7]
  GI50: 2.14 µM
[7]; 48 h, read-out: TGI
  IC (TGI): 6.06 µM
[7]; read-out: LC50
  CC50: > 100 µM
[8]; 48 h, read-out: TGI MG_MID
  IC (TGI): 3.19 µM
[8]; read-out: GI50 MG_MID
  GI50: 1.67 µM
[8]; read-out: LC50 MG_MID
  CC50: 5.92 µM
[9]; RPMI-8226
  GI50: 2.12 µM
[9]; RPMI-8226, 48 h, read-out: TGI
  IC (TGI): 4.63 µM
[9]; RPMI-8226, read-out: LC50
  CC50: > 100 µM
[10]
  GI50: 1.7 µM
[10]; 48 h, read-out: TGI
  IC (TGI): 3.29 µM
[10]; read-out: LC50
  CC50: 6.35 µM
[11]; SNB-75
  GI50: 1.61 µM
[11]; SNB-75, 48 h, read-out: TGI
  IC (TGI): 3.1 µM
[11]; SNB-75, read-out: LC50
  CC50: 5.97 µM
[12]; OVCAR-3
  GI50: 1.88 µM
[12]; OVCAR-3, 48 h, read-out: TGI
  IC (TGI): 3.56 µM
[13]; MDA-MB-435
  GI50: 1.64 µM
[13]; MDA-MB-435, 48 h, read-out: TGI
  IC (TGI): 3.07 µM
[13]; MDA-MB-435, read-out: LC50 (the source's name)
  CC50: 5.75 µM
[14]; COLO 205
  GI50: 1.62 µM
[14]; COLO 205, 48 h, read-out: TGI
  IC (TGI): 3.26 µM
[15]
  GI50: 1.98 µM
[15]; 48 h, read-out: TGI
  IC (TGI): 3.91 µM
[16]; MOLT-4
  GI50: 1.84 µM
[16]; MOLT-4, 48 h, read-out: TGI
  IC (TGI): 4.16 µM
[17]; NCI-H460
  GI50: 1.85 µM
[17]; NCI-H460, 48 h, read-out: TGI
  IC (TGI): 3.5 µM
[18]; SNB-19
  GI50: 1.91 µM
[18]; SNB-19, 48 h, read-out: TGI
  IC (TGI): 3.62 µM
[19]; MCF7
  GI50: 1.51 µM
[19]; MCF7, 48 h, read-out: TGI
  IC (TGI): 3.18 µM
[20]; SK-OV-3
  GI50: 1.79 µM
[20]; SK-OV-3, 48 h, read-out: TGI
  IC (TGI): 3.25 µM
[20]; SK-OV-3, read-out: LC50
  CC50: 5.91 µM
[21]; SK-MEL-28
  GI50: 1.77 µM
[21]; SK-MEL-28, 48 h, read-out: TGI
  IC (TGI): 3.26 µM
[21]; SK-MEL-28, read-out: LC50
  CC50: 5.97 µM
[22]; 48 h, read-out: TGI MG_MID
  IC (TGI): 3.19 µM
[22]; read-out: GI50 MG_MID
  GI50: 1.67 µM
[22]; read-out: LC50 MG_MID
  CC50: 6.1 µM
[23]; SK-MEL-2
  GI50: 1.88 µM
[23]; SK-MEL-2, 48 h, read-out: TGI
  IC (TGI): 3.52 µM
[23]; SK-MEL-2, read-out: LC50
  CC50: 6.58 µM
[24]; 48 h, read-out: TGI MG_MID
  IC (TGI): 3.5 µM
[24]; read-out: GI50 MG_MID
  GI50: 1.67 µM
[24]; read-out: LC50 MG_MID
  CC50: 7.57 µM
[25]; 48 h, read-out: TGI MG_MID
  IC (TGI): 3.36 µM
[25]; read-out: GI50 MG_MID
  GI50: 1.77 µM
[25]; read-out: LC50 MG_MID
  CC50: 6.16 µM
[26]; 786-0, 1 dose 10 µM
  Growth % of the Most Sensitive Cell Lines: −90.69%
[26]; Homo sapiens, 786-0
  GI50: 1.84 µM
[26]; Homo sapiens, 786-0, 48 h, read-out: TGI
  IC (TGI): 3.51 µM
[27]; Homo sapiens, U-251
  GI50: 1.66 µM
[27]; Homo sapiens, U-251, 48 h, read-out: TGI
  IC (TGI): 3.17 µM
[27]; Homo sapiens, U-251, read-out: LC50
  CC50: 6.07 µM
[27]; U251, 1 dose 10 µM
  Growth % of the Most Sensitive Cell Lines: −95.86%
[28]; HCC 2998
  GI50: 1.58 µM
[28]; HCC 2998, 48 h, read-out: TGI
  IC (TGI): 3.18 µM
[29]
  GI50: 1.68 µM
[29]; 48 h, read-out: TGI
  IC (TGI): 3.26 µM
[29]; read-out: LC50
  CC50: 6.34 µM
